# Measurements as given in patent publication US20230149418A1, “METHODS AND SYNERGIC COMPOSITIONS FOR TREATING VIRAL INFECTIONS” (HADASIT MEDICAL RESEARCH SERVICES AND DEVELOPMENT LTD., priority 2018, published 2023).
# pEC50: −log10 of the molar value. Read-outs that look alike come from different tables or passages of the source.
# Assays:
# HCMV = experiment: Ex vivo HCMV infection of human decidual (placental) tissue organ cultures, viral mRNA copy number; type: cell-based, human cytomegalovirus; conditions: for pEC50: Human betaherpesvirus 5; for Dose of drug alone at Fa 0.9: Fa 0.9, drug alone; for DRI (dose reduction index): combination artemisone + maribavir
# Experimental: Organ cultures were washed and stored at -80° C. until assayed. RNA was extracted, and the purified RNA samples were subjected to reverse transcription (RT), followed by quantitative real-time PCR. The viral mRNA copy number was normalized by the cellular housekeeping gene β-actin.
# We employed our model of HCMV infection in human decidual tissues (representing the maternal aspect of the chimeric human placenta), maintained as multi-cell-type 3D organ cultures as described in Weisblum Y. et al. J Virol 2011 85(24): 13204-13. doi: 10.1128/JVI.05749-11. For infection of the organ cultures, decidual tissues were placed in 48-well plates and inoculated with the virus (5x10^4 plaque forming units (PFU)/well) for 12 h to allow effective viral adsorption. The tissues were further monitored for viral infection and spread for 7 days. For determination of the drug EC50 values of in the tissues, serial drug concentrations: each drug separately or combination of the drugs were added to the infected decidual tissues during viral adsorption at any further medium replacement to keep the drug concentration constant. The results were compared to samples to which the drug was not added. The EC50 was defined as the drug concentration required to reduce the viral mRNA copy number by 50%. The effect of drug combinations was tested in accordance with the Chou-Talalay method. All comparative experiments were performed in parallel on tissues from the same donor.
# The dose reduction index (DRI) was then calculated as described in Chou. As described earlier, the DRI is a measure of how many folds the dose of each drug in a synergistic combination may be reduced at a given effect level compared with the doses of each drug alone. For each one of the below tables: Fa - fraction of virus affected; doses are provided in µm.
# [1] = preclinical in vitro and in vivo screens; cited from earlier work
# human endothelial cells = conditions: compared with dihydroartemisinin; cited from earlier work
compound,measurement,setting,value
CC1CCC2[C@@H](C)[C@H](N3CCS(=O)(=O)CC3)OC3O[C@]4(C)CCC1C32OO4 (stereo in doubt) [artemisone],pEC50,"HCMV; ex vivo, Fa 0.5, drug alone, read-out: Dose of drug alone at Fa 0.5",6.37
same,pEC50,"HCMV; sole drug, ex vivo decidual tissues, read-out: EC50 (concentration required to reduce the viral mRNA copy number by 50%)",6.30
same,Dose of drug alone at Fa 0.05,"HCMV; ex vivo, Fa 0.05, drug alone",0.00699 µm
same,Dose of drug alone at Fa 0.75,"HCMV; ex vivo, Fa 0.75, drug alone",1.965 µm
same,Dose of drug alone at Fa 0.9,HCMV; ex vivo,9.1 µm
same,Dose of drug alone at Fa 0.9,"HCMV; ex vivo, listed as Art",9.098 µm
same,Dose of drug alone at Fa 0.95,"HCMV; ex vivo, Fa 0.95, drug alone",25.7963 µm
same,Dose of drug alone at Fa 0.97,"HCMV; ex vivo, Fa 0.97, drug alone",54.1517 µm
same,DRI (dose reduction index),"HCMV; ex vivo, Fa 0.05",0.1239
same,DRI (dose reduction index),"HCMV; ex vivo, Fa 0.5",1.12
same,DRI (dose reduction index),"HCMV; ex vivo, Fa 0.75",2.546
same,DRI (dose reduction index),"HCMV; ex vivo, Fa 0.9",5.8
same,DRI (dose reduction index),"HCMV; ex vivo, Fa 0.9, listed as Art",5.789
same,DRI (dose reduction index),"HCMV; ex vivo, Fa 0.95, listed as Art",10.1210
same,DRI (dose reduction index),"HCMV; ex vivo, Fa 0.97",15.0614
same,Neurotoxicity,[1],does not elicit neurotoxicity
same,Anti-angiogenic activity,human endothelial cells,significantly less anti-angiogenic than dihydroartemisinin
